Test system: 699152-130-R-J1-PDC complex spheroid growth
Test: Anticancer human tumor 699152-130-R-J1-PDC patient-derived pancreatic carcinoma cell line growth inhibition [AhR]
Conditions: for IC50: curve of first compound; for viability, T/C: stronger effect = lower value
How it was run: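 Spheroids combined tumor cells with HUVEC endothelial cells and human MSCs as stroma. AhR antagonists were paired with standard or investigational drugs, each dosed in half-log steps down from near clinical Cmax, or from 10 microM where Cmax was unknown.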

[1] = second compound 0.1 µM, first compound 0.0316 µM
[2] = second compound 0.1 µM, first compound 0.1 µM
[3] = second compound 0.316 µM, first compound 0.0316 µM
[4] = second compound 0.316 µM, first compound 0.1 µM
[5] = second compound 1 µM, first compound 0.0316 µM
[6] = second compound 1 µM, first compound 0.1 µM
[7] = second compound 3.16 µM, first compound 0.0316 µM
[8] = second compound 3.16 µM, first compound 0.1 µM
[9] = second compound 10 µM, first compound 0.0316 µM
[10] = second compound 10 µM, first compound 0.1 µM
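Also: compound exposure lasted 7 days after spheroids had grown for 3 days.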

Cn1ncnc1C1c2n[nH]c(=O)c3cc(F)cc(c23)NC1c1ccc(F)cc1 (stereo not given) + Cc1ccccc1N=Nc1ccc(NC(=O)c2ccnn2C)c(C)c1
IC50 (second compound 0.1 µM): > 0.1 µM | IC50 (second compound 0.316 µM): > 0.1 µM | IC50 (second compound 1 µM): > 0.1 µM | IC50 (second compound 3.16 µM): > 0.1 µM | IC50 (second compound 10 µM): > 0.1 µM | viability, T/C (second compound 0.1 µM, first compound 0.000316 µM): 83.7% | viability, T/C (second compound 0.1 µM, first compound 0.001 µM): 101% | viability, T/C (second compound 0.1 µM, first compound 0.00316 µM): 101% | viability, T/C (second compound 0.1 µM, first compound 0.01 µM): 87% | viability, T/C [1]: 99.2% | viability, T/C [2]: 100% | viability, T/C (second compound 0.316 µM, first compound 0.000316 µM): 102% | viability, T/C (second compound 0.316 µM, first compound 0.001 µM): 96.5% | viability, T/C (second compound 0.316 µM, first compound 0.00316 µM): 97.8% | viability, T/C (second compound 0.316 µM, first compound 0.01 µM): 88.8% | viability, T/C [3]: 92.4% | viability, T/C [4]: 80.1% | viability, T/C (second compound 1 µM, first compound 0.000316 µM): 107% | viability, T/C (second compound 1 µM, first compound 0.001 µM): 87% | viability, T/C (second compound 1 µM, first compound 0.00316 µM): 94% | viability, T/C (second compound 1 µM, first compound 0.01 µM): 98.4% | viability, T/C [5]: 95.5% | viability, T/C [6]: 83.2% | viability, T/C (second compound 3.16 µM, first compound 0.000316 µM): 97.5% | viability, T/C (second compound 3.16 µM, first compound 0.001 µM): 117% | viability, T/C (second compound 3.16 µM, first compound 0.00316 µM): 112% | viability, T/C (second compound 3.16 µM, first compound 0.01 µM): 100% | viability, T/C [7]: 90.5% | viability, T/C [8]: 99% | viability, T/C (second compound 10 µM, first compound 0.000316 µM): 113% | viability, T/C (second compound 10 µM, first compound 0.001 µM): 112% | viability, T/C (second compound 10 µM, first compound 0.00316 µM): 118% | viability, T/C (second compound 10 µM, first compound 0.01 µM): 122% | viability, T/C [9]: 108% | viability, T/C [10]: 105%

NS(=O)(=O)OCC1CC(n2ccc3c(NC4CCc5ccccc54)ncnc32)CC1O (stereo not given) + Cc1ccccc1N=Nc1ccc(NC(=O)c2ccnn2C)c(C)c1
IC50 (second compound 0.1 µM): 0.807 µM | IC50 (second compound 0.316 µM): 0.724 µM | IC50 (second compound 1 µM): 0.739 µM | IC50 (second compound 3.16 µM): 0.694 µM | IC50 (second compound 10 µM): 0.542 µM | viability, T/C [1]: 98.3% | viability, T/C [2]: 107% | viability, T/C (second compound 0.1 µM, first compound 0.316 µM): 107% | viability, T/C (second compound 0.1 µM, first compound 1 µM): 37.5% | viability, T/C (second compound 0.1 µM, first compound 3.16 µM): 21.6% | viability, T/C (second compound 0.1 µM, first compound 10 µM): 25.2% | viability, T/C [3]: 102% | viability, T/C [4]: 103% | viability, T/C (second compound 0.316 µM, first compound 0.316 µM): 104% | viability, T/C (second compound 0.316 µM, first compound 1 µM): 29.4% | viability, T/C (second compound 0.316 µM, first compound 3.16 µM): 18.5% | viability, T/C (second compound 0.316 µM, first compound 10 µM): 20.1% | viability, T/C [5]: 105% | viability, T/C [6]: 116% | viability, T/C (second compound 1 µM, first compound 0.316 µM): 105% | viability, T/C (second compound 1 µM, first compound 1 µM): 30.3% | viability, T/C (second compound 1 µM, first compound 3.16 µM): 20.2% | viability, T/C (second compound 1 µM, first compound 10 µM): 27.1% | viability, T/C [7]: 115% | viability, T/C [8]: 115% | viability, T/C (second compound 3.16 µM, first compound 0.316 µM): 96.7% | viability, T/C (second compound 3.16 µM, first compound 1 µM): 28.4% | viability, T/C (second compound 3.16 µM, first compound 3.16 µM): 20.8% | viability, T/C (second compound 3.16 µM, first compound 10 µM): 24.9% | viability, T/C [9]: 122% | viability, T/C [10]: 125% | viability, T/C (second compound 10 µM, first compound 0.316 µM): 67.3% | viability, T/C (second compound 10 µM, first compound 1 µM): 32.9% | viability, T/C (second compound 10 µM, first compound 3.16 µM): 27.2% | viability, T/C (second compound 10 µM, first compound 10 µM): 30.8%

Nc1ncn(C2CC(O)C(CO)S2)c(=O)n1 (stereo not given) + Cc1ccccc1N=Nc1ccc(NC(=O)c2ccnn2C)c(C)c1
IC50 (second compound 0.1 µM): > 0.3 µM | IC50 (second compound 0.316 µM): > 0.3 µM | IC50 (second compound 1 µM): > 0.3 µM | IC50 (second compound 3.16 µM): > 0.3 µM | IC50 (second compound 10 µM): > 0.3 µM | viability, T/C (second compound 0.1 µM, first compound 0.000949 µM): 99.6% | viability, T/C (second compound 0.1 µM, first compound 0.003 µM): 98.9% | viability, T/C (second compound 0.1 µM, first compound 0.00949 µM): 99% | viability, T/C (second compound 0.1 µM, first compound 0.03 µM): 95.5% | viability, T/C (second compound 0.1 µM, first compound 0.0949 µM): 102% | viability, T/C (second compound 0.1 µM, first compound 0.3 µM): 102% | viability, T/C (second compound 0.316 µM, first compound 0.000949 µM): 101% | viability, T/C (second compound 0.316 µM, first compound 0.003 µM): 105% | viability, T/C (second compound 0.316 µM, first compound 0.00949 µM): 95.3% | viability, T/C (second compound 0.316 µM, first compound 0.03 µM): 105% | viability, T/C (second compound 0.316 µM, first compound 0.0949 µM): 103% | viability, T/C (second compound 0.316 µM, first compound 0.3 µM): 90.4% | viability, T/C (second compound 1 µM, first compound 0.000949 µM): 101% | viability, T/C (second compound 1 µM, first compound 0.003 µM): 101% | viability, T/C (second compound 1 µM, first compound 0.00949 µM): 103% | viability, T/C (second compound 1 µM, first compound 0.03 µM): 107% | viability, T/C (second compound 1 µM, first compound 0.0949 µM): 103% | viability, T/C (second compound 1 µM, first compound 0.3 µM): 89.8% | viability, T/C (second compound 3.16 µM, first compound 0.000949 µM): 90.2% | viability, T/C (second compound 3.16 µM, first compound 0.003 µM): 99% | viability, T/C (second compound 3.16 µM, first compound 0.00949 µM): 104% | viability, T/C (second compound 3.16 µM, first compound 0.03 µM): 101% | viability, T/C (second compound 3.16 µM, first compound 0.0949 µM): 100% | viability, T/C (second compound 3.16 µM, first compound 0.3 µM): 95.3% | viability, T/C (second compound 10 µM, first compound 0.000949 µM): 114% | viability, T/C (second compound 10 µM, first compound 0.003 µM): 116% | viability, T/C (second compound 10 µM, first compound 0.00949 µM): 122% | viability, T/C (second compound 10 µM, first compound 0.03 µM): 111% | viability, T/C (second compound 10 µM, first compound 0.0949 µM): 114% | viability, T/C (second compound 10 µM, first compound 0.3 µM): 107%
